Results from article PMC12974487, “Inhibition of FicD-mediated AMPylation and deAMPylation by isoprenoid diphosphates” (Proceedings of the National Academy of Sciences of the …, 2026).
Changes are numbered by the printed parent chain.

Legend:
FicD = tested on: FicD; parameters: method as in PMID 40036289; conditions: cited from earlier work
FicD^E234G = target: T1, FicD^E234G (Homo sapiens, UniProt Q9BVA6, E234G); experiment: MIDAS metabolite screen, FicD^E234G; assay type: binding; conditions: cutoff Q < 0.05 and |Log2 corrected fold change| > 2, metabolites 5 µM
T1 construct: soluble ER luminal domain (residues 105 to 458) of wild-type human FicD and three mutants; 6xHis-Sumo (N, cleaved yes); made in house; host or cells: Rosetta(DE3) E. coli
T1 sequence (Q9BVA6 105-458 E234G): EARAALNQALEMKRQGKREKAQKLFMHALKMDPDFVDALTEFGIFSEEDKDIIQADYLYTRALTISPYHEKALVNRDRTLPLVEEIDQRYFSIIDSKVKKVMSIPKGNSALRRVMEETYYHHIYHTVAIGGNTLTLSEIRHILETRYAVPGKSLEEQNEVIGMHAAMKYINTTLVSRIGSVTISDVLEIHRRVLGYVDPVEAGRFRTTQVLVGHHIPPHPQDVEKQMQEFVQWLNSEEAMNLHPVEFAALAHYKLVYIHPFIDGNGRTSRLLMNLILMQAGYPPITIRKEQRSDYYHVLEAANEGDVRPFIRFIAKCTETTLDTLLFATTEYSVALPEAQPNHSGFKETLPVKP

FicD^WT = target: T2, FicD^WT (Homo sapiens, UniProt Q9BVA6); experiment: MIDAS equilibrium dialysis/mass spectrometry metabolite screen, FicD^WT; assay type: binding; conditions: cutoff Q < 0.05 and |Log2 corrected fold change| > 2, metabolites 5 µM
T2 construct: soluble ER luminal domain (residues 105 to 458) of wild-type human FicD; 6xHis-Sumo (N, cleaved yes); made in house; host or cells: Rosetta(DE3) E. coli
T2 sequence (Q9BVA6 105-458): T1 sequence (Q9BVA6 105-458 E234G) with G130E

FicD^H363A = target: T3, FicD^H363A (Homo sapiens, UniProt Q9BVA6, H363A); experiment: MIDAS metabolite screen, FicD^H363A; assay type: binding; conditions: cutoff Q < 0.05 and |Log2 corrected fold change| > 2, metabolites 5 µM
T3 construct: soluble ER luminal domain (residues 105 to 458) of wild-type human FicD and three mutants; 6xHis-Sumo (N, cleaved yes); made in house; host or cells: Rosetta(DE3) E. coli
T3 sequence (Q9BVA6 105-458 H363A): T1 sequence (Q9BVA6 105-458 E234G) with G130E, H259A
From the text: (§1) To identify small-molecule metabolite interactions with FicD, we applied an unbiased high-throughput screening approach known as MIDAS ([44]). Given the high concentrations of protein required for MIDAS screening, we purified the soluble ER luminal domain (residues 105 to 458) of wild-type human FicD and three mutants FicD^E234G, FicD^L258D, and FicD^H363A for screening (Fig. 1A). These mutants were selected based on their well-established biochemical features ([23], [24], [31]). All three are predicted to enhance detection of protein–metabolite interactions (PMIs) relative to FicD^WT through increased affinity for nucleotide substrates (FicD^E234G), improved solubility (FicD^L258D), and loss of catalytic turnover (FicD^H363A) (Fig. 1A). To decrease the potential for nonspecific small-molecule binding, we ensured the purity of our FicD proteins (SI Appendix, Fig. S1 A and B). As reported by other investigators ([24], [31]), we observe an increase in elution volume of the FicD^L258D mutant, consistent with its monomerization (SI Appendix, Fig. S1C).
(§2) Out of the 602 naturally occurring human metabolites in the MIDAS library, we applied a significance cutoff (q value < 0.05) to identify 12 PMIs with a Log2 (corrected fold change) of >2 and two PMIs with a Log2 (corrected fold change) <-2 in the FicD^WT screen (Fig. 1B and SI Appendix, Table S2). Hits were additionally triaged based on detection of multiple adducts of the metabolite in a single dataset (FPP and […] in Fig. 1B) and identification of the same metabolites across three or more of the FicD construct screens (Fig. 1C). Three chemical classes passed this initial triage: adenosine nucleotides, isoprenoid diphosphates, and thyroid hormone intermediates (Fig. 1 B and C and SI Appendix, Tables S2–S5).
(§3) 22°C. Induced cultures were then harvested by centrifugation at 8000G for 15 minutes at 4°C and […]
(§4) Bacterial pellets were resuspended in 30-50mL of 50mM Tris pH 7.4/150mM NaCl/10% glycerol with one Roche cOmplete EDTA-Free Protease inhibitor cocktail tablet (cat no. COEDTAF-RO).
(§5) Triton-X100 to a final concentration of 0.2%, Chicken-egg lysozyme to a final concentration of 0.4ug/mL, and 2-5uL of Millipore Benzonase Nuclease (cat no. 70664) were added to bacterial suspension prior to sonication at 40-50% amplitude for 1-3 minutes in pulses of 5 seconds on and 30 seconds off on ice with a Sonics VCX 750 Ultrasonicator. Bacterial lysate was then clarified by centrifugation at 30,000 x g for 30 minutes at 4°C.
Clarified lysate was rotated with Qiagen NiNTA agarose beads (cat no. 30210) for 1-2 hours at 4°C. […]

FicD^L258D = target: T4, FicD^L258D (Homo sapiens, UniProt Q9BVA6, L258D); experiment: MIDAS metabolite screen, FicD^L258D; assay type: binding; conditions: cutoff Q < 0.05 and |Log2 corrected fold change| > 2, metabolites 5 µM
T4 construct: soluble ER luminal domain (residues 105 to 458) of wild-type human FicD and three mutants; 6xHis-Sumo (N, cleaved yes); made in house; host or cells: Rosetta(DE3) E. coli
T4 sequence (Q9BVA6 105-458 L258D): T1 sequence (Q9BVA6 105-458 E234G) with G130E, L154D
From the text: as §1, §2, §3, §4, §5
Clarified lysate was rotated with Qiagen NiNTA agarose beads (cat no. 30210) for 1-2 hours at 4°C. The beads were then transferred to a 15mL conical vial, resuspended in 10-15mL wash buffer (50mM Tris pH 7.4/150mM NaCl/10% glycerol/0.2% Triton-X 100/10mM imidazole), and spun down at 1000G for 1 minute at 4°C, after which the supernatant was aspirated from the beads. This washing step was repeated 2-4 times to rinse bacterial lysate from the beads prior to on-column washing. The beads were then transferred to BioRad Econopac 20mL bed volume column (cat no.
7321010) and washed with 10-15mL of wash buffer (repeated at least three times), 10mL of ATP wash (50mM Tris pH 7.4/300mM KCl/10mM MgCl2/500uM ATP, repeated once), and finally with 10-15mL wash buffer without Triton-X 100 (repeated at least three times). Protein was eluted in 500μL-1mL elution buffer (50mM Tris pH 7.5/150mM NaCl/10% glycerol/0.5% CHAPS). […]

| SMILES | FicD inhibition reported in previous drug screens (FicD) | MIDAS protein-metabolite interaction (enrichment/depletion) (FicD^E234G) | MIDAS protein-metabolite interaction (enrichment/depletion) (FicD^WT) | MIDAS protein-metabolite interaction (enrichment/depletion) (FicD^H363A) | MIDAS protein-metabolite interaction (enrichment/depletion) (FicD^L258D) |
| --- | --- | --- | --- | --- | --- |
| N[C@@H](Cc1cc(I)c(Oc2ccc(O)c(I)c2)c(I)c1)C(=O)O [liothyronine] | small-molecule inhibitor of FicD | – | – | – | – |
| N[C@@H](Cc1ccc(Oc2ccc(O)c(I)c2)c(I)c1)C(=O)O [3,3’-Diiodothyronine] | – | significantly enriched | significantly enriched | significantly enriched | significantly enriched |
